One test deals with T1, Tyk2 (Homo sapiens, UniProt P29597).
T1 construct: purchased Invitrogen
As to the kind of experiment: Tyk2 enzyme inhibition test (LANCE method). The settings on record: for inhibition at 10 µM: test compound 10 μM, read-out: Inhibitory rate (%) Tyk2 10 μM; for inhibition at 1 µM: test compound 1 μM, read-out: Inhibitory rate (%) Tyk2 1 μM. Type of test: biochemical. Summed up:
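Recombinant Tyk2 (375 ng/mL stock) with ULight-JAK1 peptide (300 nM stock) and ATP (30 μM stock) in HEPES pH 7.5/MgCl2/EGTA/DTT buffer, 1 h at room temperature. Stopped with EDTA plus Eu-anti-phosphotyrosine antibody; TR-FRET read at 665 nm after 1 h. No-enzyme wells define 100% inhibition.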

The target in the next test is T2, JAK1 (Homo sapiens, UniProt P23458).
T2 construct: purchased Invitrogen
Briefly: JAK1 enzyme inhibition test (LANCE method). The note with it: for inhibition at 10 µM: test compound 10 μM, read-out: Inhibitory rate (%) JAK1 10 μM; for inhibition at 1 µM: test compound 1 μM, read-out: Inhibitory rate (%) JAK1 1 μM. It is filed as biochemical. In short, it runs like this: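 TR-FRET (LANCE) kinase assay using JAK1 at 187.5 ng/mL, ULight-JAK1 peptide at 300 nM and ATP at 150 μM, given as solution concentrations before mixing. Buffer was 50 mM HEPES pH 7.5 with 10 mM MgCl2 and 2 mM DTT, and the reaction ran 1 h at room temperature. Eu anti-phosphotyrosine signal at 665 nm was expressed relative to a no-enzyme well, taken as 100% inhibition.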

Results on 27 compounds are retold here after patent US9371320B2, “Heterocyclic compound” (TAKEDA PHARMACEUTICAL COMPANY LIMITED, priority 2012, dated 2016).

T1 sequence (P29597 whole entry): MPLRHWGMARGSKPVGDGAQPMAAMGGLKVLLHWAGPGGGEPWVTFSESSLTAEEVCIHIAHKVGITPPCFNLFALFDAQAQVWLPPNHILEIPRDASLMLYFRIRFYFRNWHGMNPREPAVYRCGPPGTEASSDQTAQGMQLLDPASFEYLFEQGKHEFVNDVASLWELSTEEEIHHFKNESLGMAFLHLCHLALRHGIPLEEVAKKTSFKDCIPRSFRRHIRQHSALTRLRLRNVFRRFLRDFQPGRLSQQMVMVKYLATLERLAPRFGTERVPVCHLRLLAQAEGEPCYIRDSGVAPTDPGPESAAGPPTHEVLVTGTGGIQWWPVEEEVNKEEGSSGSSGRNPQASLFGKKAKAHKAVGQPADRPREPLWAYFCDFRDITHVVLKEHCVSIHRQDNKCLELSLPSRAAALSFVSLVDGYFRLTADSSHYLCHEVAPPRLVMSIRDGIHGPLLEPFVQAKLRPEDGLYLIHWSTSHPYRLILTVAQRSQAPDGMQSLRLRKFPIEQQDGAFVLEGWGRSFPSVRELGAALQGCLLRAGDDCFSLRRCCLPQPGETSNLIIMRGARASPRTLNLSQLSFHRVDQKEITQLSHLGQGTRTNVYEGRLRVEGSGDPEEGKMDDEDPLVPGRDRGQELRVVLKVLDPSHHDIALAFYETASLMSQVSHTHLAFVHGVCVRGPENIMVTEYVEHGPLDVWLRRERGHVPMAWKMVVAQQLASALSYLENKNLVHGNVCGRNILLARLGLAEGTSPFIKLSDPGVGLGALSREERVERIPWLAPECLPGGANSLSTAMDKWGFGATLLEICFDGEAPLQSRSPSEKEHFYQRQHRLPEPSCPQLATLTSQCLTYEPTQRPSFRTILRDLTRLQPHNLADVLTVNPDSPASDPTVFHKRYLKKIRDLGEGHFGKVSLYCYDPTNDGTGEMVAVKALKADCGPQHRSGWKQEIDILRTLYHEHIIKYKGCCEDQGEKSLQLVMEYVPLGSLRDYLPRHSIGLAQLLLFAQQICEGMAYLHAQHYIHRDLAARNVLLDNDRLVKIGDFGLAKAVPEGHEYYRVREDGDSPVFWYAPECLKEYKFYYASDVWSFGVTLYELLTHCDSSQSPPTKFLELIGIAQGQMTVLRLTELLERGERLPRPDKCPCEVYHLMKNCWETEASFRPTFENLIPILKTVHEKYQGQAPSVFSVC
T2 sequence (P23458 whole entry): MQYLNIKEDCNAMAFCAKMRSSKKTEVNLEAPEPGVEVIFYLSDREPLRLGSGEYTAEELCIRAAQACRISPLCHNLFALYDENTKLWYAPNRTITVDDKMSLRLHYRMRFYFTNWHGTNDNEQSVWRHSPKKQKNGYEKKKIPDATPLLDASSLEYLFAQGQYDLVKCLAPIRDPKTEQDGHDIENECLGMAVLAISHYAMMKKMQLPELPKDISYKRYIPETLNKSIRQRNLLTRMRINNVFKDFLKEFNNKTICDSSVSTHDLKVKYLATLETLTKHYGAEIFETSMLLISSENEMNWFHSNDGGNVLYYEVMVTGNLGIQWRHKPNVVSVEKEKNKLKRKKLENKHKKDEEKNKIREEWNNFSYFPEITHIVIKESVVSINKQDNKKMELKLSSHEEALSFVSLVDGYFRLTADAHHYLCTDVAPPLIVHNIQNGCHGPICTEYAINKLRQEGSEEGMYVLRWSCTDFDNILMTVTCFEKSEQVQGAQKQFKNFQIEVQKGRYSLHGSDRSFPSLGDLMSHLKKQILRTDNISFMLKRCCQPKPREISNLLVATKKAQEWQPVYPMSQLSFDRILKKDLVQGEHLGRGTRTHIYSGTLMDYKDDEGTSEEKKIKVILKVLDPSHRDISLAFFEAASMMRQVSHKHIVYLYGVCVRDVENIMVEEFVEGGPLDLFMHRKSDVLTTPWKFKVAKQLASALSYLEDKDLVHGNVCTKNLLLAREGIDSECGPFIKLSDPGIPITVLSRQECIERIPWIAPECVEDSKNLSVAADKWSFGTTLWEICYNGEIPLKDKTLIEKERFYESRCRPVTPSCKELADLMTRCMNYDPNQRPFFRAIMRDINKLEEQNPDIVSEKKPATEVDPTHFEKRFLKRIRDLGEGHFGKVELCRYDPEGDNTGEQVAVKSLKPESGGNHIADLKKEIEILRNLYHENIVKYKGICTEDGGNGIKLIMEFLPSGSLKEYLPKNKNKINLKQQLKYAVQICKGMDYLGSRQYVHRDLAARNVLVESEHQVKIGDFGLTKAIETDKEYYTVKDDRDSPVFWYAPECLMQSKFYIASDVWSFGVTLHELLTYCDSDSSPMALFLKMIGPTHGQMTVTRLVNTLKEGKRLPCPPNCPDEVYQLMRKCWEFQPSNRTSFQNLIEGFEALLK

With `CNC(=O)c1ccc(F)c(-c2nn(-c3c(F)cccc3F)c3c(Cl)c[nH]c(=O)c23)c1` [Example 271, 3-(7-chloro-1-(2,6-difluorophenyl)-4-oxo-4,5-dihydro-1H-pyrazolo[4,3-c]pyridin-3-yl)-4-fluoro-N-methylbenzamide], the inhibition at 10 µM is 26% at Tyk2 and -1% at JAK1.
With `CNC(=O)c1ccc(F)c(-c2nn(-c3c(F)cccc3F)c3cc[nH]c(=O)c23)c1` [Example 272, 3-(1-(2,6-difluorophenyl)-4-oxo-4,5-dihydro-1H-pyrazolo[4,3-c]pyridin-3-yl)-4-fluoro-N-methylbenzamide], the inhibition at 10 µM at Tyk2 came to 25%; on JAK1, 12%.
For `CNC(=O)c1cc(F)cc(-c2nn(-c3c(F)cccc3F)c3c(Cl)c[nH]c(=O)c23)c1` [Example 273, 3-(7-chloro-1-(2,6-difluorophenyl)-4-oxo-4,5-dihydro-1H-pyrazolo[4,3-c]pyridin-3-yl)-5-fluoro-N-methylbenzamide], the inhibition at 1 µM at Tyk2 was found to be 71%; at JAK1, 1%.
For `CNC(=O)c1cc(F)cc(-c2nn(-c3c(F)cccc3F)c3cc[nH]c(=O)c23)c1` [Example 274, 3-(1-(2,6-difluorophenyl)-4-oxo-4,5-dihydro-1H-pyrazolo[4,3-c]pyridin-3-yl)-5-fluoro-N-methylbenzamide], in that order: 77% and 34%.
For `O=C1CCCN1Cc1ccc(-c2nn(-c3c(F)cccc3F)c3cc[nH]c(=O)c23)cc1` [Example 275, 1-(2,6-difluorophenyl)-3-(4-((2-oxopyrrolidin-1-yl)methyl)phenyl)-1,5-dihydro-4H-pyrazolo[4,3-c]pyridin-4-one], in that order: 98% and 96%.
For `O=C1NCCN1c1ccc(-c2nn(-c3c(F)cccc3F)c3cc[nH]c(=O)c23)cc1` [Example 276, 1-(2,6-difluorophenyl)-3-(4-(2-oxoimidazolidin-1-yl)phenyl)-1,5-dihydro-4H-pyrazolo[4,3-c]pyridin-4-one] the same measures were 99% and 91%.
For `CC(=O)Nc1ccc(-c2nn(-c3c(F)cccc3F)c3cc[nH]c(=O)c23)cc1` [Example 277, N-(4-(1-(2,6-difluorophenyl)-4-oxo-4,5-dihydro-1H-pyrazolo[4,3-c]pyridin-3-yl)phenyl)acetamide], the inhibition at 1 µM at Tyk2 worked out at 99%; on JAK1 it was 95%.
With `O=c1[nH]ccc2c1c(-c1cccc(CO)c1)nn2-c1c(F)cccc1F` [Example 278, 1-(2,6-difluorophenyl)-3-(3-(hydroxymethyl)phenyl)-1,5-dihydro-4H-pyrazolo[4,3-c]pyridin-4-one-], the inhibition at 1 µM at Tyk2 worked out at 98%; at JAK1, 92%.
For `CC(=O)N1CCN(c2ccc(-c3nn(-c4c(F)cccc4F)c4cc[nH]c(=O)c34)cc2)CC1` [Example 279, 3-(4-(4-acetylpiperazin-1-yl)phenyl)-1-(2,6-difluorophenyl)-1,5-dihydro-4H-pyrazolo[4,3-c]pyridin-4-one], in that order: 99% and 96%.
On to `NC(=O)c1cc(-c2nn(C3CCCC3)c3c(Br)c[nH]c(=O)c23)cs1` [Example 280, 4-(7-bromo-1-cyclopentyl-4-oxo-4,5-dihydro-1H-pyrazolo[4,3-c]pyridin-3-yl)thiophene-2-carboxamide], for which the results for the inhibition at 1 µM on Tyk2 and at JAK1 were 97% and 94%, respectively.
Regarding `Cc1c[nH]c(=O)c2c(-c3csc(C(N)=O)c3)nn(C3CCCC3)c12` [Example 281, 4-(1-cyclopentyl-7-methyl-4-oxo-4,5-dihydro-1H-pyrazolo[4,3-c]pyridin-3-yl)thiophene-2-carboxamide], the inhibition at 1 µM on Tyk2 and on JAK1 was 96% throughout.
On to `NC(=O)c1cc(-c2nn(C3CCCC3)c3c(C4CC4)c[nH]c(=O)c23)cs1` [Example 282, 4-(1-cyclopentyl-7-cyclopropyl-4-oxo-4,5-dihydro-1H-pyrazolo[4,3-c]pyridin-3-yl)thiophene-2-carboxamide], for which the figures for the inhibition at 1 µM on Tyk2 and on JAK1 were 85% and 76%, respectively.
For the compound `O=c1[nH]ccc2c1c(Nc1ccccc1)nn2C1CCCC1` [Example 283, 3-anilino-1-cyclopentyl-1,5-dihydro-4H-pyrazolo[4,3-c]pyridin-4-one], the figures for the inhibition at 1 µM on Tyk2 and on JAK1 were 93% and 98%, respectively.
Consider `NS(=O)(=O)c1cccc(Nc2nn(C3CCCC3)c3cc[nH]c(=O)c23)c1` [Example 284, 3-((1-cyclopentyl-4-oxo-4,5-dihydro-1H-pyrazolo[4,3-c]pyridin-3-yl)amino)benzenesulfonamide], for which the inhibition at 1 µM worked out at 96% at Tyk2 and 99% at JAK1.
For `NS(=O)(=O)c1cccc(Nc2nn(C3CCCC3)c3c(Br)c[nH]c(=O)c23)c1` [Example 285, 3-((7-bromo-1-cyclopentyl-4-oxo-4,5-dihydro-1H-pyrazolo[4,3-c]pyridin-3-yl)amino)benzenesulfonamide], in that order: 82% and 70%.
For `CN(C)C(=O)c1cc(-c2nn(C3CCCC3)c3cc[nH]c(=O)c23)cs1` [Example 286, 4-(1-cyclopentyl-4-oxo-4,5-dihydro-1H-pyrazolo[4,3-c]pyridin-3-yl)-N,N-dimethylthiophene-2-carboxamide], in that order: 97% and 98%.
For `O=c1[nH]ccc2c1c(-c1cccc(CN3CCCC3)c1)nn2-c1c(F)cccc1F` [Example 288, 1-(2,6-difluorophenyl)-3-(3-(pyrrolidin-1-ylmethyl)phenyl)-1,5-dihydro-4H-pyrazolo[4,3-c]pyridin-4-one], in that order: 94% and 55%.
On to `CN(C)NC(=O)c1ccc(-c2nn(-c3c(F)cccc3F)c3cc[nH]c(=O)c23)cc1` [Example 289, 4-(1-(2,6-difluorophenyl)-4-oxo-4,5-dihydro-1H-pyrazolo[4,3-c]pyridin-3-yl)-N′,N′-dimethylbenzhydrazide], for which the inhibition at 1 µM stood at 99% at Tyk2 and 92% at JAK1.
For `NS(=O)(=O)c1ccc(-c2nn(C3CCC(F)(F)CC3)c3cc[nH]c(=O)c23)cc1` [Example 290, 4-(1-(4,4-difluorocyclohexyl)-4-oxo-4,5-dihydro-1H-pyrazolo[4,3-c]pyridin-3-yl)benzenesulfonamide], in that order: 95% and 98%.
For `O=C1CCCN1c1ccc(-c2nn(-c3c(F)cccc3F)c3cc[nH]c(=O)c23)cc1` [Example 292, 1-(2,6-difluorophenyl)-3-(4-(2-oxopyrrolidin-1-yl)phenyl)-1,5-dihydro-4H-pyrazolo[4,3-c]pyridin-4-one], in that order: 99% and 97%.
For the compound `CNC(=O)Cc1ccc(F)c(-c2nn(-c3c(F)cccc3F)c3cc[nH]c(=O)c23)c1` [Example 293, 2-(3-(1-(2,6-difluorophenyl)-4-oxo-4,5-dihydro-1H-pyrazolo[4,3-c]pyridin-3-yl)-4-fluorophenyl)-N-methylacetamide], the inhibition at 10 µM came to 22% at Tyk2 and 0% on JAK1.
Regarding `CNC(=O)c1ccc(-c2nn(-c3c(F)cccc3F)c3cc[nH]c(=O)c23)c(F)c1` [Example 294, 4-(1-(2,6-difluorophenyl)-4-oxo-4,5-dihydro-1H-pyrazolo[4,3-c]pyridin-3-yl)-3-fluoro-N-methylbenzamide], the figures for the inhibition at 1 µM on Tyk2 and on JAK1 were 92% and 35%, respectively.
As to `CNC(=O)c1ccc(-c2nn(-c3c(F)cccc3F)c3cc[nH]c(=O)c23)c(Cl)c1` [Example 295, 3-chloro-4-(1-(2,6-difluorophenyl)-4-oxo-4,5-dihydro-1H-pyrazolo[4,3-c]pyridin-3-yl)-N-methylbenzamide], the inhibition at 10 µM at Tyk2 was 80%; at JAK1 it was 24%.
Regarding `NC(=O)c1cc(-c2nn(C3CCCC3)c3c(Cl)c[nH]c(=O)c23)cs1` [Example 296, 4-(7-chloro-1-cyclopentyl-4-oxo-4,5-dihydro-1H-pyrazolo[4,3-c]pyridin-3-yl)thiophene-2-carboxamide], the inhibition at 1 µM on Tyk2 is 96%; on JAK1, 90%.
For `NS(=O)(=O)c1ccc(Nc2nn(C3CCCC3)c3cc[nH]c(=O)c23)cc1` [Example 297, 4-((1-cyclopentyl-4-oxo-4,5-dihydro-1H-pyrazolo[4,3-c]pyridin-3-yl)amino)benzenesulfonamide], in that order: 99% and 98%.
Regarding `NC(=O)c1cc(-c2nn([C@H]3CC[C@@H](N)CC3)c3cc[nH]c(=O)c23)cs1` [Example 298, 4-(1-(cis-4-aminocyclohexyl)-4-oxo-4,5-dihydro-1H-pyrazolo[4,3-c]pyridin-3-yl)thiophene-2-carboxamide], the inhibition at 10 µM on Tyk2 worked out at 58%; on JAK1, 81%.
On to `NC(=O)c1cc(-c2nn([C@H]3CC[C@H](N)CC3)c3cc[nH]c(=O)c23)cs1` [Example 299, 4-(1-(trans-4-aminocyclohexyl)-4-oxo-4,5-dihydro-1H-pyrazolo[4,3-c]pyridin-3-yl)thiophene-2-carboxamide], for which the inhibition at 1 µM on Tyk2 and on JAK1 was 99% in each case.
